Source: patent publication US7989482B2, “Indoline anti-cancer agents” (Joyant Pharmaceuticals, Inc., priority 2008, dated 2011)
Where two headings read alike, the source gives them in different places.

How the values were obtained:
A2058 cells = assay: Cell viability assay (CELL-TITER-GLO) in A2058 cells; format: cell-based; settings: A2058 cells, 48 hour treatment, cell viability, read-out: IC50 (μM) A2058
Procedure: (§1) Cell viability assays were run using standard protocols known to those of skill in art. Cells were plated in 96 well plates at the density of 3,000-10,000 cells per well. Twenty four hours later, cells were treated with increasing concentration of test compounds (1 nM to 1 μM). After another 48 hour, cell survival was measured using CELL-TITER-GLO® reagent (Promega) following the protocol provided by the manufacture. The IC50 value was determined as the concentration of test compound that kills 50% of the cell population.
(§2) Cell viability data generated according to the protocol described in Example 97 was generated for representative compounds in A2058 and U937 cells.

U937 cells = assay: Cell viability assay (CELL-TITER-GLO) in U937 cells; format: cell-based; settings: U937 cells, 48 hour treatment, cell viability, read-out: IC50 (μM) U937
Procedure: as §1, §2

SMILES | IC50 (A2058 cells; Homo sapiens, A2058, 48 h) | IC50 (U937 cells; Homo sapiens, U-937, 48 h) | other results
COC(=O)[C@H]1COC(c2nc3oc2C24c5ccccc5N[C@H]2Oc2ccc(cc24)C[C@H](NC(=O)[C@@H](O)C(C)C)C(=O)N[C@H]3C(C)C)=N1 (stereo partly shown) [Example 45] | 0.329 µM | 0.185 µM | 
CCC(O)(CC)C(=O)N[C@H]1Cc2ccc3c(c2)C2(C4=C(c5nc(C(=O)OC)co5)N=C(O4)[C@H](C(C)C)NC1=O)c1ccccc1N[C@H]2O3 (stereo partly shown) [Example 47] | 0.077 µM | 0.019 µM | 
COC(=O)c1coc(-c2nc3oc2C24c5ccccc5N[C@H]2Oc2ccc(cc24)C[C@H](NC(=O)[C@@H](O)C(C)(C)C)C(=O)N[C@H]3C(C)C)n1 (stereo partly shown) [Example 48] | 0.058 µM | 0.039 µM | 
COC(=O)c1coc(-c2nc3oc2C24c5ccccc5N[C@H]2Oc2ccc(cc24)C[C@H](NC(=O)[C@@H](O)C(C)(C)C)C(=O)N[C@H]3C(C)C)n1 (stereo partly shown) [Example 49] |  |  | IC50 (A2058 cells): 0.049 µM; IC50 (U937 cells): 0.04 µM
[H][C@@]1(C(=O)N[C@H]2Cc3ccc4c(c3)C3(C5=C(c6nc(C(=O)OC)co6)N=C(O5)[C@H](C(C)C)NC2=O)c2ccccc2N[C@H]3O4)CCCO1 (stereo partly shown) [Example 50] | 0.075 µM | 0.04 µM | 
COC(=O)c1coc(-c2nc3oc2C24c5ccccc5N[C@H]2Oc2ccc(cc24)C[C@H](NC(=O)C2(O)CCCCC2)C(=O)N[C@H]3C(C)C)n1 (stereo partly shown) [Example 51] | 0.056 µM | 0.04 µM | 
CCC(C)(O)C(=O)N[C@H]1Cc2ccc3c(c2)C2(C4=C(c5nc(C(=O)OC)co5)N=C(O4)[C@H](C(C)C)NC1=O)c1ccccc1N[C@H]2O3 (stereo partly shown) [Example 52] | 0.108 µM | 0.028 µM | 
CCC(C)(C)C(=O)N[C@H]1Cc2ccc3c(c2)C2(C4=C(c5nc(C(=O)OC)co5)N=C(O4)[C@H](C(C)C)NC1=O)c1ccccc1N[C@H]2O3 (stereo partly shown) [Example 53] | 0.357 µM | 0.068 µM | 
CCCCCCc1cccc2c1N[C@H]1Oc3ccc4cc3C21c1oc(nc1-c1nc(C(=O)OC)co1)[C@H](C(C)C)NC(=O)[C@@H](NC(=O)[C@@H](O)C(C)C)C4 (stereo partly shown) [Example 54] | 0.164 µM | 0.063 µM | 
CCC(O)(CC)C(=O)N[C@H]1Cc2ccc3c(c2)C2(C4=C(c5nc(C(=O)O)co5)N=C(O4)[C@H](C(C)C)NC1=O)c1ccccc1N[C@H]2O3 (stereo partly shown) [Example 55] |  |  | IC50 (A2058 cells; Homo sapiens): > 1 µM; IC50 (U937 cells; Homo sapiens, U-937): 0.9 µM
CC(C)[C@H](O)C(=O)N[C@H]1Cc2ccc3c(c2)C2(C4=C(c5nc(C(=O)O)co5)N=C(O4)[C@H](C(C)C)NC1=O)c1ccccc1N[C@H]2O3 (stereo partly shown) [Example 56] |  |  | IC50 (A2058 cells; Homo sapiens): 0.841 µM; IC50 (U937 cells; Homo sapiens, U-937): 0.736 µM
CNC(C(=O)N[C@H]1Cc2ccc3c(c2)C2(C4=C(c5nc(C(=O)OC)co5)N=C(O4)[C@H](C(C)C)NC1=O)c1ccccc1N[C@H]2O3)C(C)C (stereo partly shown) [Example 57] | 0.313 µM | 0.111 µM | 
CNC(=O)c1coc(-c2nc3oc2C24c5ccccc5N[C@H]2Oc2ccc(cc24)C[C@H](NC(=O)[C@@H](O)C(C)C)C(=O)N[C@H]3C(C)C)n1 (stereo partly shown) [Example 58] | > 1 µM | > 1 µM | 
CC(C)[C@H](O)C(=O)N[C@H]1Cc2ccc3c(c2)C2(C4=C(c5nc(C(=O)NC(C)(C)C)co5)N=C(O4)[C@H](C(C)C)NC1=O)c1ccccc1N[C@H]2O3 (stereo partly shown) [Example 59] | 0.514 µM | 0.604 µM | 
CC(C)[C@H](O)C(=O)N[C@H]1Cc2ccc3c(c2)C2(C4=C(c5nc(C(=O)N6CCCC6)co5)N=C(O4)[C@H](C(C)C)NC1=O)c1ccccc1N[C@H]2O3 (stereo partly shown) [Example 60] | 0.636 µM | 0.562 µM | 
CCCCNC(=O)c1coc(-c2nc3oc2C24c5ccccc5N[C@H]2Oc2ccc(cc24)C[C@H](NC(=O)[C@@H](O)C(C)C)C(=O)N[C@H]3C(C)C)n1 (stereo partly shown) [Example 62] | 0.243 µM | 0.192 µM | 
CC(C)[C@H](O)C(=O)N[C@H]1Cc2ccc3c(c2)C2(C4=C(c5nc(C(=O)N6CCN(C)CC6)co5)N=C(O4)[C@H](C(C)C)NC1=O)c1ccccc1N[C@H]2O3 (stereo partly shown) [Example 63] |  |  | IC50 (A2058 cells; Homo sapiens): 0.247 µM; IC50 (U937 cells; Homo sapiens, U-937): 0.162 µM
CC(C)[C@H](O)C(=O)N[C@H]1Cc2ccc3c(c2)C2(C4=C(c5nc(C(=O)NC6CCCc7ccccc76)co5)N=C(O4)[C@H](C(C)C)NC1=O)c1ccccc1N[C@H]2O3 (stereo partly shown) [Example 64] | 0.184 µM | 0.184 µM | 
CC(C)[C@H](O)C(=O)N[C@H]1Cc2ccc3c(c2)C2(C4=C(c5nc(C(=O)N(C)C)co5)N=C(O4)[C@H](C(C)C)NC1=O)c1ccccc1N[C@H]2O3 (stereo partly shown) [Example 65] | 0.553 µM | 0.235 µM | 
CC(C)[C@H](O)C(=O)N[C@H]1Cc2ccc3c(c2)C2(C4=C(c5nc(C(N)=O)co5)N=C(O4)[C@H](C(C)C)NC1=O)c1ccccc1N[C@H]2O3 (stereo partly shown) [Example 66] | 0.363 µM | 0.218 µM | 
COC(=O)c1nc(-c2nc3oc2C24c5ccccc5N[C@H]2Oc2ccc(cc24)CC(NC(=O)[C@@H](O)C(C)C)C(=O)N[C@H]3C(C)C)oc1C (stereo partly shown) [Example 67] | 0.047 µM | 0.024 µM | 

SMILES | IC50 (A2058 cells; Homo sapiens, A2058, 48 h) | IC50 (U937 cells; Homo sapiens, U-937, 48 h) | other results
COC(=O)c1nc(-c2nc3oc2C24c5ccccc5N[C@H]2Oc2ccc(cc24)C[C@H](NC(=O)[C@@H](O)C(C)(C)C)C(=O)N[C@H]3C(C)C)oc1C (stereo partly shown) [Example 68] | 0.066 µM | 0.057 µM | 
CCC(O)(CC)C(=O)N[C@H]1Cc2ccc3c(c2)C2(C4=C(c5nc(C(=O)OC)c(C)o5)N=C(O4)[C@H](C(C)C)NC1=O)c1ccccc1N[C@H]2O3 (stereo partly shown) [Example 69] | 0.17 µM | 0.081 µM | 
COC(=O)c1nc(-c2nc3oc2C24c5ccccc5N[C@H]2Oc2ccc(cc24)C[C@H](NC(=O)[C@@H](O)CC(C)C)C(=O)N[C@H]3C(C)C)oc1C (stereo partly shown) [Example 70] | 0.08 µM | 0.065 µM | 
COc1ccc(-c2cnc(-c3nc4oc3C35c6ccccc6N[C@H]3Oc3ccc(cc35)CC(NC(=O)[C@@H](O)C(C)C)C(=O)N[C@H]4C(C)C)o2)cc1 (stereo partly shown) [Example 71] | 0.639 µM | > 1 µM | 
CC(C)[C@H](O)C(=O)NC1Cc2ccc3c(c2)C2(C4=C(c5ncc(-c6ccccc6)o5)N=C(O4)[C@H](C(C)C)NC1=O)c1ccccc1N[C@H]2O3 (stereo partly shown) [Example 72] | > 1 µM | > 1 µM | 
CCC(O)(CC)C(=O)N[C@H]1Cc2ccc3c(c2)C2(C4=C(c5nc(CO)co5)N=C(O4)[C@H](C(C)C)NC1=O)c1ccccc1N[C@H]2O3 (stereo partly shown) [Example 74] |  |  | IC50 (A2058 cells; Homo sapiens): 0.292 µM; IC50 (U937 cells; Homo sapiens, U-937): 0.11 µM
CCC(O)c1coc(-c2nc3oc2C24c5ccccc5N[C@H]2Oc2ccc(cc24)C[C@H](NC(=O)[C@@H](O)C(C)C)C(=O)N[C@H]3C(C)C)n1 (stereo partly shown) [Example 75] | 0.226 µM | 0.229 µM | 
COCc1coc(-c2nc3oc2C24c5ccccc5N[C@H]2Oc2ccc(cc24)C[C@H](NC(=O)[C@@H](O)C(C)C)C(=O)N[C@H]3C(C)C)n1 (stereo partly shown) [Example 76] | 0.114 µM | 0.127 µM | 
CCCCCCc1oc(-c2nc3oc2C24c5ccccc5N[C@H]2Oc2ccc(cc24)C[C@H](NC(=O)[C@@H](O)C(C)C)C(=O)N[C@H]3C(C)C)nc1C(=O)OC (stereo partly shown) [Example 77] | 0.08 µM | 0.018 µM | 
CC(C)[C@H](O)C(=O)N[C@H]1Cc2ccc3c(c2)C2(C4=C(c5ncco5)N=C(O4)[C@H](C(C)C)NC1=O)c1ccccc1N[C@H]2O3 (stereo partly shown) [Example 78] | 0.154 µM | 0.052 µM | 
Cc1coc(-c2nc3oc2C24c5ccccc5N[C@H]2Oc2ccc(cc24)C[C@H](NC(=O)[C@@H](O)C(C)C)C(=O)N[C@H]3C(C)C)n1 (stereo partly shown) [Example 79] | 0.174 µM | 0.071 µM | 
CCOC(=O)c1coc(-c2nc3oc2C24c5ccccc5N[C@H]2Oc2ccc(cc24)C[C@H](NC(=O)[C@@H](O)C(C)C)C(=O)N[C@H]3C(C)C)n1 (stereo partly shown) [Example 80] | 0.021 µM | 0.0013 µM | 
CC(C)OC(=O)c1coc(-c2nc3oc2C24c5ccccc5N[C@H]2Oc2ccc(cc24)C[C@H](NC(=O)[C@@H](O)C(C)C)C(=O)N[C@H]3C(C)C)n1 (stereo partly shown) [Example 81] | 0.006 µM | 0.0014 µM | 
CC(C)[C@H](O)C(=O)N[C@H]1Cc2ccc3c(c2)C2(C4=C(c5nc(C(=O)OC(C)(C)C)co5)N=C(O4)[C@H](C(C)C)NC1=O)c1ccccc1N[C@H]2O3 (stereo partly shown) [Example 82] | 0.126 µM | 0.066 µM | 
CC(C)[C@H](O)C(=O)N[C@H]1Cc2ccc3c(c2)C2(C4=C(c5cnco5)N=C(O4)[C@H](C(C)C)NC1=O)c1ccccc1N[C@H]2O3 (stereo partly shown) [Example 83] | 0.433 µM | 0.252 µM | 
CCC(O)(CC)C(=O)N[C@H]1Cc2ccc3c(c2)C2(C4=C(c5cnco5)N=C(O4)[C@H](C(C)C)NC1=O)c1ccccc1N[C@H]2O3 (stereo partly shown) [Example 84] | 0.487 µM | 0.315 µM | 
CC(C)[C@H](O)C(=O)N[C@H]1Cc2ccc3c(c2)C2(C4=C(c5ncc[nH]5)N=C(O4)[C@H](C(C)C)NC1=O)c1ccccc1N[C@H]2O3 (stereo partly shown) [Example 85] | 0.337 µM | 0.234 µM | 
CC(C)[C@H](O)C(=O)N[C@H]1Cc2ccc3c(c2)C2(C4=C(c5nc(C#N)c(N)o5)N=C(O4)[C@H](C(C)C)NC1=O)c1ccccc1N[C@H]2O3 (stereo partly shown) [Example 86] | 0.179 µM | 0.064 µM | 
Cc1noc(-c2nc3oc2C24c5ccccc5N[C@H]2Oc2ccc(cc24)C[C@H](NC(=O)[C@@H](O)C(C)C)C(=O)N[C@H]3C(C)C)n1 (stereo partly shown) [Example 87] | 0.479 µM | 0.164 µM | 
CCOC(=O)c1noc(-c2nc3oc2C24c5ccccc5N[C@H]2Oc2ccc(cc24)C[C@H](NC(=O)[C@@H](O)C(C)C)C(=O)N[C@H]3C(C)C)n1 (stereo partly shown) [Example 88] | > 1 µM | 0.7 µM | 
